Measured values published in patent publication US20240174663A1, “PYRIMIDINE OR PYRIDINE DERIVATIVES USEFUL AS HCN2 MODULATORS” (King's College London, priority 2021, published 2024).
Where a name gives a salt, the structure may show the parent alone.

Experiments:
HCN4 = molecular target: T1, HCN4 (Homo sapiens, UniProt Q9Y3Q4); assay: HCN4 assay using PatchXpress 7000A (PX protocol, Example 25); type: cell-based; conditions: room temperature
T1 sequence (Q9Y3Q4 1-1203): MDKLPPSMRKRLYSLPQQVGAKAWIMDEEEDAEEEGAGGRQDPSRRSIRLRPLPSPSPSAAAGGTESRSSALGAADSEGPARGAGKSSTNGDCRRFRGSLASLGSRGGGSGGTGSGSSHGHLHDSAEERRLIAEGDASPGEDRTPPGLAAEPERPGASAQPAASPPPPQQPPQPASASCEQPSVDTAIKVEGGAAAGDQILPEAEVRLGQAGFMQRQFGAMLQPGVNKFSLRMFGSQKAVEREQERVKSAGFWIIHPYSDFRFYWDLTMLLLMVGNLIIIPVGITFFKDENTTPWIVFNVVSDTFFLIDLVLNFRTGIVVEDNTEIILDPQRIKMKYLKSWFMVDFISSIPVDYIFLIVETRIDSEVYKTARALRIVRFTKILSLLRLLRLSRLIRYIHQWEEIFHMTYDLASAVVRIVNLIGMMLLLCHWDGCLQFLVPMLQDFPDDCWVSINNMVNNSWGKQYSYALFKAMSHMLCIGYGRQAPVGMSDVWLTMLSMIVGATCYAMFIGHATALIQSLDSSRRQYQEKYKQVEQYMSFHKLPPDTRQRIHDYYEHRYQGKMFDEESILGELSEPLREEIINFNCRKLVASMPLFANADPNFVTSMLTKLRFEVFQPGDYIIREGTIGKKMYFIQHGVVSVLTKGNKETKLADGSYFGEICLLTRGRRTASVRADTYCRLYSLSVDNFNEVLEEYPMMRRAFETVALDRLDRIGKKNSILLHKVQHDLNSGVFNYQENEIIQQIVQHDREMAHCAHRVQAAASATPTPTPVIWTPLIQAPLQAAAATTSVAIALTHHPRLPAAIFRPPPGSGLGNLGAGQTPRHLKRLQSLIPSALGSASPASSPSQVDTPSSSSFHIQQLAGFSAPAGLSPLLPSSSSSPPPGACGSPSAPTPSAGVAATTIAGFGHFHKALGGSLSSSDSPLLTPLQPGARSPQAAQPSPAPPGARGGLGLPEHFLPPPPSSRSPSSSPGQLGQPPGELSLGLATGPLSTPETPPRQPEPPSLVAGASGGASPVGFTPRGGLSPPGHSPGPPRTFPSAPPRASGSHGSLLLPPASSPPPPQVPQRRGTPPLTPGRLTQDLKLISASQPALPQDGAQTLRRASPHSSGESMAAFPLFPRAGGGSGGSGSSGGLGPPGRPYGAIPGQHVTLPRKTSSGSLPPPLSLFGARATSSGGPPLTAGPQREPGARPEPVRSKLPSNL
Procedure: Example 25: Assay for HCN1 HCN2 and HCN4 Using PatchXpress 7000A
Solutions for recording HCN currents were:
The peak inward current measured at the end of the pulse to −110 mV (HCN1 and HCN2) or −130 mV (HCN4) was measured and any leak current subtracted to calculate the HCN current. The HCN current amplitude was measured after each control or compound addition and normalized to the control amplitude (Control A).
All experiments were performed at room temperature (approximately 22° C.).
Each test compound concentration was applied to the cell for seven (7) minutes, at which point the next cumulative concentration was applied.

WT Black6 strain mice = assay: Mouse neuropathic pain model (partial sciatic nerve ligation), von Frey filament; type: in vivo
Procedure: The model used was analogous to the model described in Seltzer Z, Dubner […] novel behavioural model of neuropathic pain disorders produced in rats by partial sciatic nerve injury, Pain 43: 205-218). […] Sci Transl Med 9: eaam6072. […] The mechanical pain threshold was measured by manual von Frey filament applied to the hind paw on the operated side, using the “up-down” method.

[1] = system: guinea pigs with noise-exposure induced tinnitus; assay: Noise-exposure tinnitus model, GPIAS test; type: in vivo, guinea pig
From the text: (§1) Tinnitus in guinea pigs was monitored using the gap induced inhibition of the acoustic startle (GPIAS) test (see FIG. 4). GPIAS is reduced when tinnitus was present; see Berger, J. I. et al. Effects of the cannabinoid CB1 agonist ACEA on salicylate ototoxicity, hyperacusis and tinnitus in guinea pigs. Hearing research, (2017), and Coomber, B. et al. Neural changes accompanying tinnitus following unilateral acoustic trauma in the guinea pig. Eur J Neurosci 40, 2427-2441, (2014).
The noise-exposure model is more clinically relevant than the salicylate model, as it parallels a common cause of tinnitus in humans. A second important point is that it is long-term, while tinnitus induced by salicylate is rapidly reversed following salicylate exposure.
GPIAS returns following drug wash-out (see bar D in FIG. 6).

[2] = system: mouse model of diabetic neuropathy; conditions: in vivo; cited from earlier work
[3] = system: mouse models of neuropathic pain; conditions: nerve injury, cancer chemotherapy and diabetic neuropathy models; cited from earlier work
[4] = system: mice (hearing thresholds); type: in vivo; conditions: adult mice, tone pulses 3 kHz to 42 kHz; 20 mg/kg ip
[5] = system: guinea pigs with salicylate-induced tinnitus; assay: Short-term (salicylate) tinnitus model, gap induced inhibition of the acoustic startle (GPIAS) test; type: in vivo, guinea pig; conditions: 5 mg/kg s.c.; salicylate 350 mg/kg i.p., 2 h
From the text: as §1
In FIG. 4, sound stimulus (above) and corresponding pinna reflex (below) are shown in freely moving guinea pigs. Stimuli with no gap and gap are presented in a randomised order. Traces contaminated by movement (the upper trace in “no gap”) were removed before analysis.
Tinnitus was induced within 1-2 hours in humans by high doses of salicylate. A similar short-term tinnitus model was implemented in guinea pigs by i.p. injection of salicylate. In all animals, salicylate caused behavioural inhibition of GPIAS (see bar 2 in FIG. 5).
Salicylate (350 mg/kg, i.p.) impairs behavioural gap detection 2 h after salicylate administration (see bar 2 in of FIG. 5). Gap detection was restored by blocking HCN channels with ivabradine (5 mg/kg, s.c.).

[6] = Evaluation of CNS penetration: ivabradine in plasma, brain and auditory nerve; type: in vivo; conditions: guinea pig, brain (somatosensory cortex) / plasma, other: injection; 30 min after injection; read-out: amount detected in brain, % of plasma level
From the text: Ratios of total concentrations in preliminary experiments for plasma:brain:auditory nerve were 1:0.12:0.57 (n=2). The small amount (12% of plasma level) detected in brain is largely accounted for by the presence of ivabradine within the vascular supply of the brain. […] Pain 155, 1708-1719, (2014).

Cc1ccc(C#N)nc1C[C@H](N)c1ncccc1-c1noc2ccccc12 [Example 4, (S)-6-{2-Amino-2-[3-(benzo[d]isoxazol-3-yl)pyridine-2-yl]ethyl}-5-methylpyridin-2-carbonitrile hydrochloride]
IC50 (HCN4): 5.2 µM | mechanical analgesic effect (mechanical pain threshold, von Frey) (WT Black6 strain mice; 1 mg/kg i.p., day 5 after partial sciatic nerve ligation, operated hind paw): full analgesia | hyperalgesia in contralateral (unoperated) hind paw (WT Black6 strain mice; i.p., mice after partial sciatic nerve ligation): No hyperalgesia observed

COc1cc2c(cc1OC)CC(=O)N(CCCN(C)C[C@H]1Cc3cc(OC)c(OC)cc31)CC2 [ivabradine]
reduced GPIAS following noise exposure ([1]; 5 mg/kg s.c., unilateral noise exposure 110 dB, 1 h, 8 weeks prior): rapidly and completely reversed | effect on GPIAS in noise-exposed guinea pigs showing no behavioural evidence of tinnitus ([1]; control experiments, n=3): without effect | analgesia in mouse model of diabetic neuropathy [2]: complete analgesia | analgesia in mouse models of neuropathic pain [3]: effective analgesic | ABR threshold or latency versus untreated [4]: no significant difference in ABR threshold or latency | behavioural gap detection (GPIAS) after salicylate [5]: restored | Kp at 30 min [6]: 0.12
